Legend:
Assay in all cases: relative viability (nuclei count vs DMSO), 5 days (fraction); higher = more cells survive
Wnt-C59 = compound: CC1=NC=CC(=C1)C2=CC=C(C=C2)CC(=O)NC3=CC=C(C=C3)C4=CN=CC=C4 [Wnt-C59]
In short: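 Viability is treated-well nuclei as a fraction of vehicle-well nuclei, reported as the median across plates. Before counting, lung cancer cell lines were kept overnight at 37 °C in 1536-well plates, pinned with five √10-spaced library-drug doses on vehicle-anchored plates, and left 5 days without medium change, then fixed, permeabilised and Hoechst-stained in one step, imaged at 4× and counted by MetaXpress. A plate passed only if control CV was below 25% and at least one doubling occurred.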

Lapatinib + Alpelisib = compound: CS(=O)(=O)CCNCc1ccc(-c2ccc3ncnc(Nc4ccc(OCc5cccc(F)c5)c(Cl)c4)c3c2)o1 [Lapatinib] + Cc1nc(NC(=O)N2CCC[C@H]2C(N)=O)sc1-c1ccnc(C(C)(C)C(F)(F)F)c1 [Alpelisib] (partner 2 µM)
In short: (§1)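 Each reported value is a median over duplicate plates. It expresses relative viability: treated-well nuclei count divided by vehicle-well nuclei count. Lung cancer cell lines in 1536-well plates were dosed by pin tool a day after seeding, alone with one drug or with a fixed anchor-drug dose plus five library-drug doses (not always all listed) in √10 steps, and nuclei were counted after 5 days.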

Lapatinib + Dasatinib = compound: CS(=O)(=O)CCNCc1ccc(-c2ccc3ncnc(Nc4ccc(OCc5cccc(F)c5)c(Cl)c4)c3c2)o1 [Lapatinib] + Cc1nc(Nc2ncc(C(=O)Nc3c(C)cccc3Cl)s2)cc(N2CCN(CCO)CC2)n1 [Dasatinib] (partner 0.075 µM)
In short: as §1

Wnt-C59 + OSI-027 = compound: CC1=NC=CC(=C1)C2=CC=C(C=C2)CC(=O)NC3=CC=C(C=C3)C4=CN=CC=C4 [Wnt-C59] + COc1cccc2cc(-c3nc([C@H]4CC[C@H](C(=O)O)CC4)n4ncnc(N)c34)[nH]c12 [OSI-027] (partner 0.5 µM)
In short: as §1

Row | Cell Line | relative viability (Wnt-C59; 0.001 µM) | relative viability (Wnt-C59; 0.01 µM) | relative viability (Wnt-C59; 0.03162 µM) | relative viability (Wnt-C59; 0.1 µM) | relative viability (Lapatinib + Alpelisib; first compound 0.2 µM) | relative viability (Lapatinib + Alpelisib; first compound 0.6325 µM) | relative viability (Lapatinib + Alpelisib; first compound 2 µM) | relative viability (Lapatinib + Dasatinib; first compound 0.02 µM) | relative viability (Lapatinib + Dasatinib; first compound 0.06325 µM) | relative viability (Lapatinib + Dasatinib; first compound 0.2 µM) | relative viability (Lapatinib + Dasatinib; first compound 0.6325 µM) | relative viability (Lapatinib + Dasatinib; first compound 2 µM) | relative viability (Wnt-C59 + OSI-027; first compound 0.001 µM) | relative viability (Wnt-C59 + OSI-027; first compound 0.01 µM) | relative viability (Wnt-C59 + OSI-027; first compound 0.03162 µM) | relative viability (Wnt-C59 + OSI-027; first compound 0.1 µM) | relative viability (Lapatinib + Alpelisib; first compound 0.06325 µM) | relative viability (Lapatinib + Alpelisib; first compound 0.02 µM)
1 | NCI-H1944 | 0.956 | 0.945 | 1.07 | 1.01 | 0.645 | 0.647 | 0.488 | 0.185 | 0.153 | 0.204 | 0.243 | 0.207 | 0.407 | 0.358 | 0.415 | 0.462 |  | 
2 | A-427 | 0.965 | 0.817 | 1.05 | 1.04 | 1.1 | 1.07 | 1.04 |  | 0.664 | 0.825 | 0.745 | 0.692 | 0.479 | 0.457 | 0.478 | 0.503 | 1.04 | 
3 | H3255 | 1.03 | 0.887 | 1.06 | 0.966 | 0.643 | 0.635 | 0.232 | 0.316 | 0.325 | 0.315 | 0.288 | 0.18 | 0.683 | 0.58 | 0.685 | 0.545 | 0.506 | 0.591
4 | NCI-H23 | 0.827 | 0.972 | 1.01 | 1 | 0.737 | 0.719 | 0.521 |  |  | 0.688 | 0.762 | 0.738 | 0.634 | 0.499 | 0.781 | 0.578 |  | 
5 | NCI-H2087 | 1.07 | 0.922 | 0.971 | 1.01 | 1.21 | 1.01 | 0.931 |  | 0.609 | 0.874 | 0.988 | 0.854 | 0.53 | 0.476 | 0.572 | 0.592 | 1.06 | 1.12
6 | SK-LU-1 | 1 | 0.987 | 1.01 | 1.01 | 0.99 | 1.1 | 0.977 | 0.162 | 0.159 | 0.179 | 0.205 | 0.182 | 0.406 | 0.283 | 0.39 | 0.364 | 0.953 | 
7 | NCI-H2347 | 1.05 | 1.01 | 1.03 | 0.997 | 1.07 | 0.844 | 1.02 |  | 0.315 | 0.299 | 0.329 | 0.25 | 0.365 | 0.474 | 0.51 | 0.457 | 1.01 | 0.901
8 | NCI-H596 | 0.93 | 0.936 | 1.12 | 1.06 | 0.425 | 0.554 | 0.446 |  | 0.521 | 0.621 | 0.573 | 0.486 | 0.733 | 0.499 | 0.952 | 0.719 | 0.48 | 0.481
9 | ABC-1 | 0.938 | 1.01 | 1.01 | 0.952 | 1.23 | 0.88 | 0.838 | 0.538 | 0.584 | 0.513 | 0.662 | 0.56 | 0.441 | 0.597 | 0.435 | 0.389 | 1.06 | 
10 | NCI-H661 | 0.961 | 1.01 | 1.08 | 0.99 | 0.468 | 0.45 | 0.36 | 0.759 | 0.572 | 0.504 | 0.523 | 0.368 | 0.719 | 0.699 | 0.803 | 0.758 | 0.637 | 0.646
11 | LU99A | 0.946 | 0.923 | 1.09 | 0.936 | 0.527 | 0.524 | 0.54 | 0.492 | 0.408 | 0.453 | 0.587 | 0.475 | 0.307 | 0.281 | 0.342 | 0.274 | 0.476 | 0.564
12 | SW 1573 | 1.02 | 0.967 | 1.1 | 0.91 | 0.635 | 0.821 | 0.843 | 0.389 | 0.381 | 0.738 | 0.434 | 0.442 | 0.684 | 0.659 | 0.63 | 0.639 | 0.648 | 0.705
13 | NCI-H1734 | 0.986 | 0.961 | 1.01 | 0.957 | 0.653 | 0.736 | 0.657 | 0.456 | 0.384 | 0.544 | 0.511 | 0.488 | 0.622 | 0.518 | 0.596 | 0.3 | 0.489 | 
14 | NCI-H2126 | 1.02 | 0.976 | 1.03 | 1.04 | 0.668 | 0.677 | 0.549 |  | 0.404 | 0.533 | 0.559 | 0.387 | 0.718 | 0.655 | 0.7 | 0.682 | 0.587 | 
15 | NCI-H838 | 0.981 | 0.985 | 0.964 | 0.995 | 1.07 | 0.967 | 0.912 | 0.263 |  | 0.304 | 0.276 | 0.247 | 0.435 | 0.385 | 0.331 | 0.411 | 0.88 | 1.05
16 | HCC-78 | 0.814 | 1.02 | 0.99 | 1.12 | 0.305 | 0.26 | 0.15 |  | 0.42 | 0.333 | 0.464 | 0.411 | 0.389 | 0.364 | 0.366 | 0.411 | 0.277 | 
17 | NCI-H2228 | 1.01 | 0.819 | 0.891 | 0.868 | 0.811 | 0.907 | 0.59 | 0.397 | 0.426 | 0.606 | 0.52 | 0.49 | 0.665 | 0.484 | 0.596 | 0.548 | 0.688 | 0.675
18 | NCI-H460 | 0.973 | 0.95 | 1.02 | 0.957 | 0.448 | 0.389 | 0.4 | 0.496 | 0.345 | 0.372 | 0.624 | 0.452 | 0.663 | 0.739 | 0.88 | 0.624 | 0.362 | 0.415
